In this assay the target is T1, HDAC6 enzyme (Homo sapiens, UniProt Q9UBN7).
T1 construct: transducing full length HDAC6 gene into Sf-9 insect cells; GST; purchased SignalChem; host or cells: Sf-9 insect cells
T1 sequence (Q9UBN7 1-1215): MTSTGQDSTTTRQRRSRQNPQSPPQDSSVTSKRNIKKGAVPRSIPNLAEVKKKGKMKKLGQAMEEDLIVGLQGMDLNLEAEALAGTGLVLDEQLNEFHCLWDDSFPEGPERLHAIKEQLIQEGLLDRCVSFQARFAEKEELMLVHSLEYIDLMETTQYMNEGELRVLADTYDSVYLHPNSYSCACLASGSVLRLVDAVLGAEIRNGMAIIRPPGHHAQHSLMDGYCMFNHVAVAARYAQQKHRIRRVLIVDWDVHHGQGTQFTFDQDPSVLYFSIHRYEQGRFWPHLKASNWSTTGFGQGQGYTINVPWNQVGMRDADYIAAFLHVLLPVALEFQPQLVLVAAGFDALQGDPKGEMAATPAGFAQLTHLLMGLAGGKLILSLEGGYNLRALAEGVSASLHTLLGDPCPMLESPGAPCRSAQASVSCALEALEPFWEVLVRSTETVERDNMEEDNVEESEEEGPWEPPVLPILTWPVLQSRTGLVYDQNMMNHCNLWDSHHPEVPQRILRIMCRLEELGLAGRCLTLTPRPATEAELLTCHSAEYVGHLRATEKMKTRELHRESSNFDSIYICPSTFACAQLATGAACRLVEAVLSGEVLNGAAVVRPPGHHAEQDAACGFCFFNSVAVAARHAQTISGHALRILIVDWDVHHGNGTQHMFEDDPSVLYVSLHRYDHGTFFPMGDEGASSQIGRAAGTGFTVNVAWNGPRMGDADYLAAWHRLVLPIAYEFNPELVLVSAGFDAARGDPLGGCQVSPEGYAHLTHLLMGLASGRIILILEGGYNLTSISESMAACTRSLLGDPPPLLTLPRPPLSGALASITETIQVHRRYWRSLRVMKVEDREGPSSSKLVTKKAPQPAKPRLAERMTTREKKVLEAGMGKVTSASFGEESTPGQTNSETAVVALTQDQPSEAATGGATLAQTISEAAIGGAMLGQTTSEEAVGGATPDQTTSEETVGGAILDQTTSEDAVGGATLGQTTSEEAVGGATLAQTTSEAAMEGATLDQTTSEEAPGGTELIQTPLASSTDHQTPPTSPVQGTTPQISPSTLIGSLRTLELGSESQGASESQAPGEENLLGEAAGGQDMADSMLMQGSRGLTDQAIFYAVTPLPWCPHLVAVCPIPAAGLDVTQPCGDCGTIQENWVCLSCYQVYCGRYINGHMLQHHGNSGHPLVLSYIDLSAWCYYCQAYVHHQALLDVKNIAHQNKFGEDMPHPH
Nature of the assay: HDAC6 enzyme inhibitory activity (HDAC-Glo I/II Assay kit). The assay is classed as biochemical. To be noted: 10 μM; wells without enzyme = 100% inhibition; read-out: HDAC6 inhibitory rate (%) (10 μM). Put shortly: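 Luminescence read-out after 20 min reaction with HDAC-Glo substrate-developer, following 60 min room-temperature preincubation of compound with Sf-9-expressed, GST-purified full-length enzyme. Inhibition is relative to no-enzyme wells set as 100%.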

21 molecules from US10435399B2, “HDAC6 inhibitory heterocyclic compound” (TAKEDA PHARMACEUTICAL COMPANY LIMITED, priority 2017, dated 2019) can be followed below.

Regarding `CS(=O)(=O)c1cccc(-c2ccccc2N2Cc3ccc(-c4nnc(C(F)F)o4)cc3C2=O)c1` [Example 172, 6-(5-(difluoromethyl)-1,3,4-oxadiazol-2-yl)-2-(3′-(methylsulfonyl)biphenyl-2-yl)isoindolin-1-one], the inhibition at 10 µM was determined as 100%.

Turning to `N[C@@H]1CCCC[C@H]1N1Cc2c(F)cc(-c3nnc(C(F)F)o3)cc2C1=O` [Example 173, 2-((1R,2R)-2-aminocyclohexyl)-6-(5-(difluoromethyl)-1,3,4-oxadiazol-2-yl)-4-fluoroisoindolin-1-one], the inhibition at 10 µM was found to be 91%.

Consider `O=C1c2cc(-c3nnc(C(F)F)o3)cc(F)c2CN1[C@@H]1COCC[C@H]1NC(=O)C(F)(F)C(F)(F)F` [Example 174, N-((3S,4R)-3-(6-(5-(difluoromethyl)-1,3,4-oxadiazol-2-yl)-4-fluoro-1-oxo-1,3-dihydro-2H-isoindol-2-yl)tetrahydro-2H-pyran-4-yl)-2,2,3,3,3-pentafluoropropanamide], for which the inhibition at 10 µM was 102%.

`CC(C)(C(=O)N[C@@H]1CCOC[C@H]1N1Cc2c(F)cc(-c3nnc(C(F)F)o3)cc2C1=O)C(F)(F)F` [Example 175, N-((3S,4R)-3-(6-(5-(difluoromethyl)-1,3,4-oxadiazol-2-yl)-4-fluoro-1-oxo-1,3-dihydro-2H-isoindol-2-yl)tetrahydro-2H-pyran-4-yl)-3,3,3-trifluoro-2,2-dimethylpropanamide]: the inhibition at 10 µM stood at 100%.

With `O=C1c2cc(-c3nnc(C(F)F)o3)cc(F)c2CN1[C@@H]1COCC[C@H]1NC(=O)C1(C(F)(F)F)CC1` [Example 176, N-((3S,4R)-3-(6-(5-(difluoromethyl)-1,3,4-oxadiazol-2-yl)-4-fluoro-1-oxo-1,3-dihydro-2H-isoindol-2-yl)tetrahydro-2H-pyran-4-yl)-1-(trifluoromethyl)cyclopropanecarboxamide], the inhibition at 10 µM amounted to 100%.

For the molecule `O=C1CCCN1[C@@H]1CCCC[C@H]1N1Cc2ncc(-c3nnc(C(F)F)o3)cc2C1=O` [Example 177, 3-(5-(difluoromethyl)-1,3,4-oxadiazol-2-yl)-6-((1R,2R)-2-(2-oxopyrrolidin-1-yl)cyclohexyl)-6,7-dihydro-5H-pyrrolo[3,4-b]pyridin-5-one], the inhibition at 10 µM stood at 97%.

Take `CC1(C)OB(c2ccccc2N2Cc3ccc(-c4nnc(C(F)F)o4)cc3C2=O)OC1(C)C` [Example 178, 6-(5-(difluoromethyl)-1,3,4-oxadiazol-2-yl)-2-(2-(4,4,5,5-tetramethyl-1,3,2-dioxaborolan-2-yl)phenyl)isoindolin-1-one]: the inhibition at 10 µM was 41%.

Regarding `O=C1c2ccccc2CN1[C@@H]1CCCC[C@H]1N1Cc2ncc(-c3nnc(C(F)F)o3)cc2C1=O` [Example 179, 3-(5-(difluoromethyl)-1,3,4-oxadiazol-2-yl)-6-((1R,2R)-2-(1-oxo-1,3-dihydro-2H-isoindol-2-yl)cyclohexyl)-6,7-dihydro-5H-pyrrolo[3,4-b]pyridin-5-one], the inhibition at 10 µM was 100%.

As to `O=C(N[C@@H]1CCOC[C@H]1N1Cc2c(F)cc(-c3nnc(C(F)F)o3)cc2C1=O)c1ccccc1Cl` [Example 180, 2-chloro-N-((3S,4R)-3-(6-(5-(difluoromethyl)-1,3,4-oxadiazol-2-yl)-4-fluoro-1-oxo-1,3-dihydro-2H-isoindol-2-yl)tetrahydro-2H-pyran-4-yl)benzamide], the inhibition at 10 µM is 100%.

For the molecule `O=C(N[C@@H]1CCOC[C@H]1N1Cc2c(F)cc(-c3nnc(C(F)F)o3)cc2C1=O)c1cccc(Cl)c1` [Example 181, 3-chloro-N-((3S,4R)-3-(6-(5-(difluoromethyl)-1,3,4-oxadiazol-2-yl)-4-fluoro-1-oxo-1,3-dihydro-2H-isoindol-2-yl)tetrahydro-2H-pyran-4-yl)benzamide], the inhibition at 10 µM stood at 97%.

Regarding `CCC(=O)N[C@@H]1CCCC[C@H]1N1Cc2c(F)cc(-c3nnc(C(F)F)o3)cc2C1=O` [Example 182, N-((1R,2R)-2-(6-(5-(difluoromethyl)-1,3,4-oxadiazol-2-yl)-4-fluoro-1-oxo-1,3-dihydro-2H-isoindol-2-yl)cyclohexyl)propanamide], the inhibition at 10 µM amounted to 99%.

For `O=C1c2cc(-c3nnc(C(F)F)o3)cc(F)c2CN1[C@@H]1CCCC[C@H]1NC(=O)C(F)(F)F` [Example 183, N-((1R,2R)-2-(6-(5-(difluoromethyl)-1,3,4-oxadiazol-2-yl)-4-fluoro-1-oxo-1,3-dihydro-2H-isoindol-2-yl)cyclohexyl)-2,2,2-trifluoroacetamide], the inhibition at 10 µM worked out at 99%.

As to `CC(F)(F)C(=O)N[C@@H]1CCCC[C@H]1N1Cc2c(F)cc(-c3nnc(C(F)F)o3)cc2C1=O` [Example 184, N-((1R,2R)-2-(6-(5-(difluoromethyl)-1,3,4-oxadiazol-2-yl)-4-fluoro-1-oxo-1,3-dihydro-2H-isoindol-2-yl)cyclohexyl)-2,2-difluoropropanamide], the inhibition at 10 µM was 102%.

`O=C(N[C@@H]1CCCC[C@H]1N1Cc2c(F)cc(-c3nnc(C(F)F)o3)cc2C1=O)[C@@H]1CC1(F)F` [Example 185, (1S)-N-((1R,2R)-2-(6-(5-(difluoromethyl)-1,3,4-oxadiazol-2-yl)-4-fluoro-1-oxo-1,3-dihydro-2H-isoindol-2-yl)cyclohexyl)-2,2-difluorocyclopropanecarboxamide]: the inhibition at 10 µM was determined as 100%.

Take `O=C1c2cc(-c3nnc(C(F)F)o3)cnc2CN1[C@@H]1CCCC[C@H]1N1C(=O)c2ccccc2C1=O` [Example 186, 2-((1R,2R)-2-(3-(5-(difluoromethyl)-1,3,4-oxadiazol-2-yl)-5-oxo-5,7-dihydro-6H-pyrrolo[3,4-b]pyridin-6-yl)cyclohexyl)-H-isoindole-1,3(2H)-dione]: the inhibition at 10 µM worked out at 101%.

Take `O=C1c2cc(-c3nnc(C(F)F)o3)ccc2CN1C1(C(=O)NCC(F)(F)F)CC1` [Example 187, 1-(6-(5-(difluoromethyl)-1,3,4-oxadiazol-2-yl)-1-oxo-1,3-dihydro-2H-isoindol-2-yl)-N-(2,2,2-trifluoroethyl)cyclopropanecarboxamide]: the inhibition at 10 µM amounted to 92%.

For the molecule `Cn1cc(-c2ccccc2)c(N2Cc3ccc(-c4nnc(C(F)F)o4)cc3C2=O)n1` [Example 188, 6-(5-(difluoromethyl)-1,3,4-oxadiazol-2-yl)-2-(1-methyl-4-phenyl-1H-pyrazol-3-yl)isoindolin-1-one], the inhibition at 10 µM amounted to 98%.

For `O=C(N[C@@H]1COCC[C@H]1N1Cc2c(F)cc(-c3nnc(C(F)F)o3)cc2C1=O)c1ccccc1Cl` [Example 189, 2-chloro-N-((3S,4R)-4-(6-(5-(difluoromethyl)-1,3,4-oxadiazol-2-yl)-4-fluoro-1-oxo-1,3-dihydro-2H-isoindol-2-yl)tetrahydro-2H-pyran-3-yl)benzamide], the inhibition at 10 µM worked out at 100%.

As for `O=C(N[C@@H]1COCC[C@H]1N1Cc2c(F)cc(-c3nnc(C(F)F)o3)cc2C1=O)c1cccc(Cl)c1` [Example 190, 3-chloro-N-((3S,4R)-4-(6-(5-(difluoromethyl)-1,3,4-oxadiazol-2-yl)-4-fluoro-1-oxo-1,3-dihydro-2H-isoindol-2-yl)tetrahydro-2H-pyran-3-yl)benzamide], the inhibition at 10 µM amounted to 100%.

As for `CCC(=O)N[C@@H]1COCC[C@H]1N1Cc2c(F)cc(-c3nnc(C(F)F)o3)cc2C1=O` [Example 191, N-((3S,4R)-4-(6-(5-(difluoromethyl)-1,3,4-oxadiazol-2-yl)-4-fluoro-1-oxo-1,3-dihydro-2H-isoindol-2-yl)tetrahydro-2H-pyran-3-yl)propanamide], the inhibition at 10 µM worked out at 101%.

`CC(C)(C)OC(=O)N1CC[C@@H](N2Cc3ncc(-c4nnc(C(F)F)o4)cc3C2=O)[C@@H](c2ccccc2)C1` [Example 192, tert-butyl (3S,4R)-4-(3-(5-(difluoromethyl)-1,3,4-oxadiazol-2-yl)-5-oxo-5,7-dihydro-6H-pyrrolo[3,4-b]pyridin-6-yl)-3-phenylpiperidine-1-carboxylate]: the inhibition at 10 µM was determined as 100%.
